Drawing on ChEMBL document CHEMBL4477226, “Reduction Sensitive Lipid Conjugates of Tenofovir: Synthesis, Stability, and Antiviral Activity” (J Med Chem, 2016), this text covers half-life for one compound.

Data set [1] is described as follows: Half life in pH 2 solution at 10^-3 M by HPLC analysis. It is filed as physicochemical.
A short description of data set [2]: Half life in pH 7.4 Tris HCl buffer containing KCl at 10^-3 M by HPLC analysis. It counts as physicochemical.
Data set [3] can be described thus: Half life in RPMI 1640 culture medium at 10^-3 M by HPLC analysis. It counts as physicochemical.
A short description of data set [4]: Half life in human serum at 10^-3 M by HPLC analysis. It counts as ADME, cell-free.
Data set [5] can be described thus: Half life in human gastric juice. It counts as ADME, tissue-based.

Take `Nc1ncnc2c1ncn2CCOCP(=O)(OCCSSCCO)OCCSSCCO`: the half-life – broadly, how long it takes for the measured level to halve – at 1000 µM was > 24 h in data set [1], > 24 h in data set [2], > 24 h in data set [3] and < 4.98 min in data set [4]. Also, the half-life in data set [5] is > 24 h.
